Results taken from ChEMBL document CHEMBL3351904, “Synthesis of new bioisosteric hemiasterlin analogues with extremely high cytotoxicity” (Bioorg Med Chem Lett, 2014).
pIC50: −log10 of the molar value.

Legend:
HepG2 = assay: Cytotoxicity against human HepG2 cells assessed as reduction in cell growth after 3 days by MTT assay; type: functional, cell-based; settings: HepG2, 72 h
KB = assay: Cytotoxicity against human KB cells assessed as reduction in cell growth after 3 days by MTT assay; type: functional, cell-based; settings: 72 h

SMILES | pIC50 (HepG2) | pIC50 (KB)
CN[C@H](C(=O)N[C@H](C(=O)N(C)[C@H](/C=C(\C)C(=O)O)C(C)C)C(C)(C)C)C(C)(C)c1coc2ccccc12 | 8.72 | 8.77
CCOC(=O)/C(C)=C/[C@H](C(C)C)N(C)C(=O)[C@@H](NC(=O)[C@H](NC)C(C)(C)c1ccc(Br)cc1)C(C)(C)C | 8.00 | 6.76
CN[C@@H](C(=O)N[C@H](C(=O)N(C)[C@H](/C=C(\C)C(=O)O)C(C)C)C(C)(C)C)C(C)(C)c1ccc2ccccc2c1 | 7.47 | 7.85
CCOC(=O)/C(C)=C/[C@H](C(C)C)N(C)C(=O)[C@@H](NC(=O)[C@@H](NC)C(C)(C)c1ccc(Br)cc1)C(C)(C)C | 8.22 | 7.92
CCOC(=O)/C(C)=C/[C@H](C(C)C)N(C)C(=O)[C@@H](NC(=O)[C@@H](NC)C(C)(C)c1coc2ccccc12)C(C)(C)C | 7.96 | 7.89
CCOC(=O)/C(C)=C/[C@H](C(C)C)N(C)C(=O)[C@@H](NC(=O)[C@@H](NC)C(C)(C)c1ccc2ccccc2c1)C(C)(C)C | 7.89 | 7.89
CCOC(=O)/C(C)=C/[C@H](C(C)C)N(C)C(=O)[C@@H](NC(=O)[C@H](NC)C(C)(C)c1coc2ccccc12)C(C)(C)C | 6.14 | 6.12
CN[C@@H](C(=O)N[C@H](C(=O)N(C)[C@H](/C=C(\C)C(=O)O)C(C)C)C(C)(C)C)C(C)(C)c1coc2ccccc12 | 7.43 | 7.37
CN[C@H](C(=O)N[C@H](C(=O)N(C)[C@H](/C=C(\C)C(=O)O)C(C)C)C(C)(C)C)C(C)(C)c1ccc2ccccc2c1 | 8.72 | 8.72
CN[C@H](C(=O)N[C@H](C(=O)N(C)[C@H](/C=C(\C)C(=O)O)C(C)C)C(C)(C)C)C(C)(C)c1ccc(Br)cc1 | 8.74 | 8.77
CCOC(=O)/C(C)=C/[C@H](C(C)C)N(C)C(=O)[C@@H](NC(=O)[C@H](NC)C(C)(C)c1ccc2ccccc2c1)C(C)(C)C | 6.84 | 6.74
CN[C@@H](C(=O)N[C@H](C(=O)N(C)[C@H](/C=C(\C)C(=O)O)C(C)C)C(C)(C)C)C(C)(C)c1ccc(Br)cc1 | 7.89 | 7.96
